Measured values from article PMC5454592, “Pharmacological and Toxicological Properties of the Potent Oral γ-Secretase Modulator BPN-15606” (The Journal of Pharmacology and Experimental Therapeutics, 2017).

What was measured:
[1] = test system: Aβ neuritic plaques; assay: Chronic repeat-dose efficacy in PSAPP transgenic mice (Thioflavin S plaque load); assay type: in vivo
Description: Thirty-five female double-transgenic mice, model presenilin amyloid precursor protein ([Jankowsky et al., 2004]), purchased from The Jackson Laboratory (Bar Harbor, ME) [B6.C3-Tg (APPswe, PSEN1dE9) 85Dbo/Mmjax, stock no. 0034829] and then bred in-house, were used in the study at 90 days of age. The mice were housed in a temperature-controlled room at a constant 22°C in a 12:12-hour light/dark cycle (lights off at 18:00), with food and water available ad libitum. Age-matched mice were housed by treatment group in groups of two to four per cage. All experimental procedures were reviewed and approved by Institutional Animal Care and Use Committee at University of California, San Diego. Subjects were randomly assigned to either the drug group (BPN-15606) or vehicle, with individual groups ranging from 9 to 10 mice. Mice were treated for 6 months with BPN-15606 at a dose of 10 mg/kg/d. For the drug administration, BPN-15606 was milled into standard rodent chow, processed by Research Diets (New Brunswick, NJ). All animals were weighed three times weekly to assess any adverse effects on normal weight gain during the 6-month treatment period. Food consumption was determined by weighing the metal cage, including the chow, to the nearest 0.1 g.
To determine Aβ fibril plaque load, floating coronal sections from AD and wild-type mice, n = 4 for each group, were washed in miliQ water and mounted on Fisherbrand Superfrost Plus microscope slides, before being processed for 1% (w/v) Thioflavin S staining. All images were taken with Leica (Mannheim, Germany) fluorescence microscope at 5× and with the same exposure across all images. The percent plaque within specified areas of a series of hippocampal and frontal cortex sections was quantified using ImageJ software from National Institutes of Health. Images were converted to 8-bit grayscale, and area of interest was traced and determined. Brightness and B/W threshold were adjusted appropriately and consistently across all images. The area of plaque particles within the area of interest was obtained, and the percent plaque was calculated. […]

[2] = target: γ-secretase (Homo sapiens, UniProt P49768); assay: anti-Aβ immunoprecipitation/MALDI-TOF of neuronal cells; assay type: cell-based; design: endogenous in cells; host or cells: 'neuronal cells' (not specified further); settings: neuronal cells treated overnight with 100 nM
Description: All Aβ assays, including the anti-Aβ immunoprecipitation/matrix-assisted laser desorption/ionization time of flight, were carried out as described previously ([Wagner et al., 2014]).

[3] = Metabolite identification in cryopreserved hepatocytes; assay type: in vitro ADME, mouse, rat, dog, monkey, human; settings: hepatocyte cultures from five species
Description: Test compound (1 μM) was incubated at 37°C for 4 hours with cryopreserved mouse, rat, dog, monkey, or human hepatocytes. Identification of metabolites’ molecular weights and relative abundance of the specific metabolites was based on high performance liquid chromatography (HPLC)/MS/MS peak areas, and structural characterization of metabolites was accomplished by LC/MS/MS/Q-Trap.

[4] = test system: HReN-mGAP AD ReN cells; assay: Three-dimensional human neural cell culture model of AD (MSD ELISA); assay type: cell-based; settings: 70 nM
Description: HReN-mGAP AD ReN cell expression APP^Swedish/London and Presenilin 1^ΔE9 were previously described ([Choi et al., 2014]). The HReN-mGAP AD ReN cells were three-dimensional (3D)–differentiated for 7 weeks, as previously described ([Choi et al., 2014]). The cultures were then harvested and analyzed for the soluble (conditioned media) and insoluble Aβ40/42/38 and p-tau/tau levels, using Meso Scale Discovery electrochemiluminescence system. BPN-15606 (70 nM) and the same volume of DMSO controls were treated in the last 4 weeks. The potential toxicity of the drugs was monitored by CytoTox-ONE (lactate dehydrogenase) assay after 1 week of the treatments. At the end of the treatments, the soluble (media) and the insoluble fractions (5 M GuHCl-soluble extracts) were collected and analyzed for Aβ38, Aβ40, and Aβ42 with MSD enzyme-linked immunosorbent assay (ELISA; V-Plex 6E10 Aβ40/Aβ42/Aβ38 kit). The custom-made plates were used for detecting total tau (BT2; ThermoFisher Scientific, Sommerset, NJ) and pThr181 tau (At270; ThermoFisher Scientific, Sommerset, NJ). The insoluble fraction was dissolved in 5 M GuHCl, and pThr181 tau, total tau, Aβ40, Aβ42, and Aβ38 concentrations were determined by MSD ELISA. The levels of the control protein Tuj1 were determined by dot-blot analysis in the GuHCl lysates (data not shown).

[5] = test system: Aβ42 and Aβ40 levels; assay: Repeat-dose (7-day) efficacy study in mice; assay type: in vivo, C57BL/6J mice
Description: Male C57BL/6J mice (n = 10/dose level) and male Sprague–Dawley rats (n = 14/dose level) were administered either vehicle (80% polyethylene glycol 400 v/v; 20% sterile water v/v and 0.1% Tween 20 v/v) or BPN-15606 (10, 25, and 50 mg/kg) once daily po for 7 consecutive days (mice) or 5, 25, and 50 mg/kg once daily po for 9 consecutive days (rats). […] Animals were sacrificed 4 hours following the dosing on day 7 of the 7-day oral treatment course (mice) and on day 9 of the 9-day oral treatment course (rats). Plasma and brain extracts were prepared (mice and rats); CSF was aspirated from the cisterna magnum with minimal to no blood contamination (rats only); and tissues were frozen at −70°C. Aβ peptides were quantitated in brain extracts and plasma (mice) or CSF and plasma (rats), as described previously, using Meso Scale multiplex kits and the Meso Scale Sector Imager 6000 ([Kounnas et al., 2010]). Statistical analysis was performed using GraphPad Prism software, and results are expressed as mean ± S.E.M. Analysis of variance was used to detect a significant effect. Drug levels of BPN-15606 were measured in plasma and brain extracts using the bioanalytical methods detailed above.

[6] = 10 mg/kg/d in chow for 6 months
[7] = last 4 weeks of 7-week 3D culture, media

## COc1nc(-c2cc(C)c(N[C@@H](C)c3ccc(F)cc3)nn2)ccc1-n1cnc(C)c1 [BPN-15606, (S)-N-(1-(4-fluorophenyl)ethyl)-6-(6-methoxy-5-(4-methyl-1H-imidazol-1-yl)pyridin-2-yl)-4-methylpyridazin-3-amine]
[1]; 10 mg/kg/d for 6 months
  necropsy findings at end of study: no significant adverse findings
[1]; [6]
  accumulation of Aβ neuritic plaques in cortex (Thioflavin S, densitometry): significantly reduced accumulation of Aβ neuritic plaques
  accumulation of Aβ neuritic plaques in hippocampus (Thioflavin S, densitometry): significantly reduced accumulation of Aβ neuritic plaques
[2]
  Aβ37 peak (IP/MALDI-TOF): significantly increased
  Aβ38 peak (IP/MALDI-TOF): significantly increased
  Aβ40 peak (IP/MALDI-TOF): significantly reduce
  Aβ42 peak (IP/MALDI-TOF): completely eliminate the peak
[3]
  uniquely human metabolites: absence of any unique human metabolites
[3]; listed as BPN-15605
  uniquely human metabolites: no uniquely human metabolites identified
[4]; [7]
  soluble Aβ38 level: increasing
  soluble Aβ40 level: dramatically decreased
  soluble Aβ42/40 ratio: dramatically decreased
  soluble Aβ42 level: dramatically decreased
[4]; 5 M GuHCl-soluble extracts
  insoluble Aβ40 level: decreased
  insoluble Aβ42 level: decreased
  insoluble pThr181 tau level: decreased
  insoluble total tau level: decreased
[5]; mice, 10 mg/kg
  lowering of brain Aβ42 levels: ~40%
[5]; mice, 25 mg/kg
  lowering of brain Aβ42 levels: 70–75%
  lowering of plasma Aβ42: > 90%
[5]; mice, 10, 25, 50 mg/kg po daily for 7 days
  clinical observations: all animals appeared normal throughout the study
